In article PMC7782793, “Hydroxamic acid-modified peptide microarrays for profiling isozyme-selective interactions and inhibition of histone deacetylases” (Nature Communications, 2021):
“And” between values parts separate entries of the source, which are not always exact repeats. Equal entries are not always repeated. Marks after values point to notes of the source that are not given here. Non-standard residues stand in square brackets, D forms with d. Residues, ends and D or L forms follow the SMILES beside them. *: point of attachment. Asu = N[C@@H](CCCCCC(=O)O)C(=O)O; NHOH = ON*

Experiments:
[1] = biological target: T1, HDAC4 (Homo sapiens, UniProt P56524); experiment: HDAC inhibition assay (fluorogenic, Ac-Leu-Gly-Lys(Tfa)-AMC); type: biochemical; settings: 2 internal replicates
T1 construct: purchased BPS Bioscience 50004

[2] = biological target: T2, HDAC8 (Homo sapiens, UniProt Q9BY41); experiment: as above; type: biochemical; settings: for HDAC8 dose-response data (relative enzyme activity, replicate values), Fig. 6 + S. Fig. 10: two replicate columns per inhibitor; for HDAC8 dose-response data (relative enzyme activity), Fig. 6 + S. Fig. 10: duplicate columns
T2 construct: HDAC8 (full length, C-terminal His tag, BPS Bioscience, cat. #: 50008); purchased BPS Bioscience 50008
T2 sequence (Q9BY41 1-377): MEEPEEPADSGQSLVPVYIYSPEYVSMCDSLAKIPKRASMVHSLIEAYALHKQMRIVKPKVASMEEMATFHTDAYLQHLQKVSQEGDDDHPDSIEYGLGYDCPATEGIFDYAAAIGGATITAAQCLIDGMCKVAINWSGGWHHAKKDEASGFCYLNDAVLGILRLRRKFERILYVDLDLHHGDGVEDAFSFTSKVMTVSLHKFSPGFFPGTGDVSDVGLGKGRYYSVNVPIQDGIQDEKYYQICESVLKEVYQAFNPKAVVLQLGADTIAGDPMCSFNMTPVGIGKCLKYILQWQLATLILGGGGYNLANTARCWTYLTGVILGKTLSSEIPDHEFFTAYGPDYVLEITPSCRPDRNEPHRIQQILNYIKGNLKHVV

[3] = biological target: T3, HDAC3/NCoR2 (Homo sapiens, UniProt O15379); experiment: Recombinant HDAC µSPOT microarray binding assay;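 further: peptide spots on cellulose slides incubated with rising HDAC enzyme concentrations, imaged together, four-parameter logistic fit, EC50 is enzyme concentration giving half-maximal binding signal, two experiments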
T3 construct: HDAC3/NCoR2 (full length, C-terminal His tag, NCoR2 N-terminal GST tag); purchased BPS Bioscience 50003

[4] = system: HDACs 1‒3 and 8; experiment: HDAC inhibition assays, statements across several class I isozymes; type: biochemical, human; settings: resynthesized peptides, from Ki
[5] = biological target: T4, HDAC1 (Homo sapiens, UniProt Q13547); experiment: Recombinant HDAC µSPOT microarray binding assay;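 further: slides with spotted peptides incubated with six HDAC concentrations in HEPES buffer pH 7.4, spot intensities fitted by four-parameter logistic, EC50 as enzyme concentration giving half-maximal binding signal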
T4 construct: HDAC1 (full length, C-terminal His tag, C-terminal FLAG tag, BPS Bioscience, cat. #: 50051); FLAG (C); purchased BPS Bioscience 50051
Procedure: (§1) Experiments were performed twice, data were obtained with Array Analyze software (Active Motif), and data analysis and representation were performed with the GraphPad Prism 7 software. Outliers were curated manually and data were fitted to nonlinear regression [log(agonist) vs. response—variable slope (four parameters)]. […] Non-sigmoidal curves were denoted as not determined (N.D.) The pEC50 values were determined as the concentration of HDAC enzyme required for half-maximal binding signal.

[6] = biological target: T5, HDAC6 (Homo sapiens, UniProt Q9UBN7); experiment: HDAC inhibition assay (fluorogenic, Ac-Leu-Gly-Lys(Ac)-AMC); type: biochemical; settings: HDAC6, replicates
T5 construct: HDAC6 (full length, BPS Bioscience, cat. #: 50056); purchased BPS Bioscience 50056
T5 sequence (Q9UBN7 1-1215): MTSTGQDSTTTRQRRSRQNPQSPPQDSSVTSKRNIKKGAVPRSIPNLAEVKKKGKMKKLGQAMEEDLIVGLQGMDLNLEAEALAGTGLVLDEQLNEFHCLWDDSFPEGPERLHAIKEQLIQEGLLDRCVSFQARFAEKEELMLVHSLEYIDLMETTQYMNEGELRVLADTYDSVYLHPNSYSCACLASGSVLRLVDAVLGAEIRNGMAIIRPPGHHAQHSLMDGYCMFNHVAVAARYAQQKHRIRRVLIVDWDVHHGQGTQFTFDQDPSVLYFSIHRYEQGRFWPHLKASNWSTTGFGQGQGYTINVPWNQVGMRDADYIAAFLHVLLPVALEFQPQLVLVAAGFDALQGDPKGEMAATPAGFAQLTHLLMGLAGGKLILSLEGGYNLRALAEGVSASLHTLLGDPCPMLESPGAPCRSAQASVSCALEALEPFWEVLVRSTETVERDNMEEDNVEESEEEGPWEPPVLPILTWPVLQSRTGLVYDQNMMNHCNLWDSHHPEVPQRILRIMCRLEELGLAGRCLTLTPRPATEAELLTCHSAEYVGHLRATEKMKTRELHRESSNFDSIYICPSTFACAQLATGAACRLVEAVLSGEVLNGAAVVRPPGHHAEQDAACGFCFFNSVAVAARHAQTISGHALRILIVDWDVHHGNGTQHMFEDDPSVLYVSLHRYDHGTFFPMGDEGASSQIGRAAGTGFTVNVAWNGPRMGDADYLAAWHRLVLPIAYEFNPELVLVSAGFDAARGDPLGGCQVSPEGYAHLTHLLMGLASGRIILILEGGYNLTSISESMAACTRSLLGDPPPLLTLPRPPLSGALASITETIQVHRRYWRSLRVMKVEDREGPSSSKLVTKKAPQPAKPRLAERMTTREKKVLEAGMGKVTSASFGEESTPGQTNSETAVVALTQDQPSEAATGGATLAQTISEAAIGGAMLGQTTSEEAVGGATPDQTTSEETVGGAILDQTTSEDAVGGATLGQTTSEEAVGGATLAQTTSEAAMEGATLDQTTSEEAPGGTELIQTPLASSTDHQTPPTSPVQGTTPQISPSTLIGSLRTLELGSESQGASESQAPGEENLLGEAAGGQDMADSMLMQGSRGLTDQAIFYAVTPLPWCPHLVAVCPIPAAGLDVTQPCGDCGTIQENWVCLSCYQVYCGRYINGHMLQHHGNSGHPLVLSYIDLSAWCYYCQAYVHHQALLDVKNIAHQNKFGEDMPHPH

[7] = biological target: T6, HDAC2 (Homo sapiens, UniProt Q92769); experiment: as above; type: biochemical; settings: for HDAC2 dose-response data (relative enzyme activity), Fig. 6 + S. Fig. 10: duplicate columns
T6 construct: HDAC2 (full length, C-terminal His tag, BPS Bioscience, cat. #: 50002); purchased BPS Bioscience 50002

[8] = biological target: T4, HDAC1; experiment: as above; type: biochemical; settings: for HDAC1 dose-response data (relative enzyme activity), Fig. 6 + S. Fig. 10: duplicate columns
[9] = biological target: T6, HDAC2; experiment: Recombinant HDAC µSPOT microarray binding assay;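 further: Cellulose-bound peptide spots on slides incubated with six HDAC enzyme concentrations, binding intensity read, four-parameter variable-slope fit, EC50 is enzyme concentration giving half-maximal binding, in HEPES buffer pH 7.4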
Procedure: as §1

[10] = log[inhibitor(M)] -10,5850266520292*, whole line marked with asterisks

T6 sequence (Q92769 whole entry): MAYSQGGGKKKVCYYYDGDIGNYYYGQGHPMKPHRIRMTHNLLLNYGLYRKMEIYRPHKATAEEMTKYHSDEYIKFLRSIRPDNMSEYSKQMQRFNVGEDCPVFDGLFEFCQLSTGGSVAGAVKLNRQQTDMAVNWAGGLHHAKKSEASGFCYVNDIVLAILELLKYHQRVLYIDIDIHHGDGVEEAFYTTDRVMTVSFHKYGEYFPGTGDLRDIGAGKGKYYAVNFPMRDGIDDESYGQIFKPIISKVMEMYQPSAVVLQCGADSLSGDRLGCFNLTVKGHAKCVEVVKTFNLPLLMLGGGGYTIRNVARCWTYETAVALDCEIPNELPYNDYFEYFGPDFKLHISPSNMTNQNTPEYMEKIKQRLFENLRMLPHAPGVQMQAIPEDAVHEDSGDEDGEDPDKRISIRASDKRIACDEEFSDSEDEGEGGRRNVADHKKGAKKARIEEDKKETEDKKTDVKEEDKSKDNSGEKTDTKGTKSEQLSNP
T4 sequence (Q13547 whole entry): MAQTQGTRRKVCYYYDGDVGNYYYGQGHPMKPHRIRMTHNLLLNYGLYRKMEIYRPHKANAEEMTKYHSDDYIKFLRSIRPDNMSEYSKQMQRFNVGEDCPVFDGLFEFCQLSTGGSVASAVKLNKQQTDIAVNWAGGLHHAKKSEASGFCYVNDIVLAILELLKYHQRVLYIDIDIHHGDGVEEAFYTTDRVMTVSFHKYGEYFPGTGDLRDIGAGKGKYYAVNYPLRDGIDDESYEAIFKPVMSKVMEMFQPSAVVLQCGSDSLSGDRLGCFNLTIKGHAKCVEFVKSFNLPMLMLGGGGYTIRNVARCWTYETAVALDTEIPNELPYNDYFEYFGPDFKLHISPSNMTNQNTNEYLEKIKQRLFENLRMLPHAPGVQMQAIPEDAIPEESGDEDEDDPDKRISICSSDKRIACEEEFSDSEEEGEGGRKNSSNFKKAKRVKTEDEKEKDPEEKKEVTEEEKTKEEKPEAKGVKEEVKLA
T1 sequence (P56524 627-1084): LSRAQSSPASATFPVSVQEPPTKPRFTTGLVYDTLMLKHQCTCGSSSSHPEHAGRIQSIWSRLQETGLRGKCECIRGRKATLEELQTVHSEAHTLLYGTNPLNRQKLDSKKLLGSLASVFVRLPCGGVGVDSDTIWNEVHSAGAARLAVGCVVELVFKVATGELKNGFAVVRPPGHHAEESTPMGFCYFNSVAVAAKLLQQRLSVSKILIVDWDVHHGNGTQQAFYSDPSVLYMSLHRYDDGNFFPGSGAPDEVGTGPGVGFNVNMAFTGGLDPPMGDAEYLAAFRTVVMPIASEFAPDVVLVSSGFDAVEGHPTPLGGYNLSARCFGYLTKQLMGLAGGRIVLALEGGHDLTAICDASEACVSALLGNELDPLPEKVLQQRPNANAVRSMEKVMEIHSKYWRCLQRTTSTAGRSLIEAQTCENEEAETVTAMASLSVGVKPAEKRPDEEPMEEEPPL
T3 sequence (O15379 whole entry): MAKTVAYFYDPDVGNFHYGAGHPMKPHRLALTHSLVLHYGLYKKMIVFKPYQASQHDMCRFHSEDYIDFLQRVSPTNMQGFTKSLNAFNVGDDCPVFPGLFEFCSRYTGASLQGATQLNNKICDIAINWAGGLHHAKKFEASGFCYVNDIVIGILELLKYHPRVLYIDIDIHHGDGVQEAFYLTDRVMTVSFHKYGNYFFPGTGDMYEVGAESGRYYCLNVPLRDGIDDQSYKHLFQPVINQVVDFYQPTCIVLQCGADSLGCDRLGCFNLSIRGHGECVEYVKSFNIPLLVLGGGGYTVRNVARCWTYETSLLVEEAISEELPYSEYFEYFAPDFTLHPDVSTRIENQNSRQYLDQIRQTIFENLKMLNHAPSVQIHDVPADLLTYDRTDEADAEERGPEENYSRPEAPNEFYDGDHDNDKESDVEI
T3 sequence (Q9Y618 389-480 partner limits assumed): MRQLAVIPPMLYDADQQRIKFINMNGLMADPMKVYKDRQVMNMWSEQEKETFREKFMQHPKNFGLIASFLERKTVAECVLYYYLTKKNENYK

CC(=O)N[C@@H](CC(C)C)C(=O)NCC(=O)N[C@@H](CCCCN)C(=O)NCC(=O)NCC(=O)N[C@@H](C)C(=O)N[C@@H](CCCCCC(=O)NO)C(=O)N[C@@H](CCCNC(=N)N)C(=O)N[C@@H](Cc1c[nH]cn1)C(=O)N[C@@H](CCCNC(=N)N)C(=O)N[C@@H](CCCCN)C(=O)N[C@H](C(=O)N[C@@H](CC(C)C)C(=O)N[C@@H](CCCNC(=N)N)C(=O)N[C@@H](CC(=O)O)C(=O)N[C@@H](CC(N)=O)C(=O)N[C@@H](Cc1c[nH]c2ccccc12)C(N)=O)C(C)C [16a] (Ac-LGKGGA[Asu](NHOH)RHRKVLRDNW-NH2)
residual enzymatic activity relative to control wells ([1]; inhibitor 5 µM): 96.58
remaining activity at 5 µM ([1]; inhibitor 5 µM, read-out: residual enzymatic activity relative to control wells): 93.6%
residual enzymatic activity relative to control wells ([1]; inhibitor 50 µM): 68.39
remaining activity at 50 µM ([1]; inhibitor 50 µM, read-out: residual enzymatic activity relative to control wells): 67.1%
Ki [2]: 3960 ± 30 nM
HDAC8 dose-response data (relative enzyme activity, replicate values), Fig. 6 + S. Fig. 10 ([2]; Inhibitor conc [M] -8.49485 (log)): 105.989 and 103.599
HDAC8 dose-response data (relative enzyme activity, replicate values), Fig. 6 + S. Fig. 10 ([2]; Inhibitor conc [M] -9.19382 (log)): 103.027 and 101.95
HDAC8 dose-response data (relative enzyme activity, replicate values), Fig. 6 + S. Fig. 10 ([2]; Inhibitor conc [M] given as -7.09691 (log)): 102.108 and 99.2954
HDAC8 dose-response data (relative enzyme activity, replicate values), Fig. 6 + S. Fig. 10 ([2]; Inhibitor conc [M] given as -7.79588 (log)): 104.22 and 100.942
HDAC8 dose-response data (relative enzyme activity, replicate values), Fig. 6 + S. Fig. 10 ([2]; Inhibitor conc [M] given as -9.89279 (log)): 101.805 and 102.182
HDAC8 dose-response data (relative enzyme activity, replicate values), Fig. 6 + S. Fig. 10 ([2]; Inhibitor conc [M] given as -10.585 (log)): 101,084* and 101,486*
HDAC8 dose-response data (relative enzyme activity), Fig. 6 + S. Fig. 10 ([2]; Inhibitor conc [M] -4.30103): 9.568 and 11.2045
HDAC8 dose-response data (relative enzyme activity), Fig. 6 + S. Fig. 10 ([2]; Inhibitor conc [M] -5): 36.7683 and 38.5294
HDAC8 dose-response data (relative enzyme activity), Fig. 6 + S. Fig. 10 ([2]; Inhibitor conc [M] -5.69897): 76.0846 and 76.9796
HDAC8 dose-response data (relative enzyme activity), Fig. 6 + S. Fig. 10 ([2]; Inhibitor conc [M] -6.39794): 95.2833 and 94.1446
EC50 [3]: 3.24 nM
selectivity against HDACs 1‒3 versus HDAC8 [4]: over 100 fold
EC50 [5]: 12.6 nM
residual enzymatic activity relative to control wells ([6]; log[inhibitor(M)] -4.30103): 4.09 and 0.65
residual enzymatic activity relative to control wells ([6]; log[inhibitor(M)] -5): 6.22 and 1.17
residual enzymatic activity relative to control wells ([6]; log[inhibitor(M)] -5.69897): 11.26 and 3.12
residual enzymatic activity relative to control wells ([6]; log[inhibitor(M)] -6.39794): 21.64 and 10.97
residual enzymatic activity relative to control wells ([6]; log[inhibitor(M)] -7.09691): 46.18 and 32.55
residual enzymatic activity relative to control wells ([6]; log[inhibitor(M)] -7.79588): 74.92 and 62.21
residual enzymatic activity relative to control wells ([6]; log[inhibitor(M)] -8.49485): 91.41 and 82.42
residual enzymatic activity relative to control wells ([6]; log[inhibitor(M)] -9.19382): 100.82 and 93.56
residual enzymatic activity relative to control wells ([6]; log[inhibitor(M)] -9.89279): 98.48 and 94.75
residual enzymatic activity relative to control wells ([6]; log[inhibitor(M)] -10.585): 101,7* and 98,09*
HDAC2 dose-response data (relative enzyme activity), Fig. 6 + S. Fig. 10 ([7]; log[inhibitor(M)] -7.79588): 97.4067 and 92.3774
HDAC2 dose-response data (relative enzyme activity), Fig. 6 + S. Fig. 10 [7, 10]: 106,147* and 102,092*
Ki ([7]; resynthesized peptide in solution, Cheng-Prusoff, n = 2): 18.3 ± 0.3 nM
Ki [8]: 15.7 ± 0.2 nM
HDAC1 dose-response data (relative enzyme activity), Fig. 6 + S. Fig. 10 ([8]; log[inhibitor(M)] -6.39794): 20.1917 and 18.7736
HDAC1 dose-response data (relative enzyme activity), Fig. 6 + S. Fig. 10 ([8]; log[inhibitor(M)] -7.09691): 58.4856 and 48.5202
HDAC1 dose-response data (relative enzyme activity), Fig. 6 + S. Fig. 10 ([8]; log[inhibitor(M)] -7.79588): 83.6845 and 79.5184
HDAC1 dose-response data (relative enzyme activity), Fig. 6 + S. Fig. 10 ([8]; log[inhibitor(M)] -8.49485): 104.354 and 102.416
HDAC1 dose-response data (relative enzyme activity), Fig. 6 + S. Fig. 10 ([8]; log[inhibitor(M)] -9.19382): 117.259 and 104.242
HDAC1 dose-response data (relative enzyme activity), Fig. 6 + S. Fig. 10 ([8]; log[inhibitor(M)] -9.89279): 112.284 and 97.8893
HDAC1 dose-response data (relative enzyme activity), Fig. 6 + S. Fig. 10 [8, 10]: 104,006* and 95,9789*
EC50 [9]: 1.45 nM
